Measurements from paper PMC6063332 (Archives of Toxicology, 2018).

What was measured:
HDAC10 = molecular target: T1, HDAC10 (Homo sapiens, UniProt Q969S8); test: NanoBRET cellular target engagement assay; assay type: binding; settings: HeLa cells
T1 construct: host or cells: HeLa cells, stably transfected
T1 sequence (Q969S8 1-669): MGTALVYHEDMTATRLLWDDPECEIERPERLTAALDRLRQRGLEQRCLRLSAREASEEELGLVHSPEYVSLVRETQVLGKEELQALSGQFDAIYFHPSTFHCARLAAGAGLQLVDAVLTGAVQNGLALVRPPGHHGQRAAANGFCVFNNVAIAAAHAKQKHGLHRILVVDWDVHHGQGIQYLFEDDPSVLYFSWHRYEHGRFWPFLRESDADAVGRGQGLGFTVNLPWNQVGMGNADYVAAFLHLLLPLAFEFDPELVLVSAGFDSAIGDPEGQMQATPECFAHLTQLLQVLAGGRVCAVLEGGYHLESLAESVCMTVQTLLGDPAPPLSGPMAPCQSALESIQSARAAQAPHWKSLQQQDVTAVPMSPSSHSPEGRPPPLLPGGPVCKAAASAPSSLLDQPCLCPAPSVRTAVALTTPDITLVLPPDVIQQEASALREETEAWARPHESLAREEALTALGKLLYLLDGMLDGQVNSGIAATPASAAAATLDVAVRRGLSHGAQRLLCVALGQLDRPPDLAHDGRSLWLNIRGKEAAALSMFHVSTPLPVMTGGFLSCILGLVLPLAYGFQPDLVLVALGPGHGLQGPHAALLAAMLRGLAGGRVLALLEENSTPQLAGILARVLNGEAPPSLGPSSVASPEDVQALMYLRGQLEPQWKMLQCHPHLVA
Description: HeLa cells, stably transfected with NanoBRET plasmids NanoLuc®-HDAC6 FL Fusion Vector and NanoLuc®-HDAC10 FL Fusion Vector (Promega, Madison, WI, USA) were seeded at 20,000 cells/well in white 96-well plates. Without further incubation, tracer (0.3 µM) and drugs were added in separate steps and plates were placed in a tissue culture incubator for 2 h. For NanoBRET quantification, plates were put at room temperature for 10 min. Nanoglow substrate, diluted in OptiMEM without phenol red, was added and measured within 10 min in an OPTIMA plate reader (460 nm emission for donor and 610LP filter for acceptor, BMG Labtech, Ortenberg, Germany). The BRET signal was calculated by the ratio of acceptor signal to donor signal.

HDAC3 = molecular target: T2, HDAC3 (Homo sapiens, UniProt O15379); test: Biochemical HDAC3 activity, fluorogenic p53 peptide (Reaction Biology); settings: fluorogenic p53 peptide RHKK(Ac)AMC
T2 construct: purchased Reaction Biology Corp. (contract testing)
T2 sequence (O15379 whole entry): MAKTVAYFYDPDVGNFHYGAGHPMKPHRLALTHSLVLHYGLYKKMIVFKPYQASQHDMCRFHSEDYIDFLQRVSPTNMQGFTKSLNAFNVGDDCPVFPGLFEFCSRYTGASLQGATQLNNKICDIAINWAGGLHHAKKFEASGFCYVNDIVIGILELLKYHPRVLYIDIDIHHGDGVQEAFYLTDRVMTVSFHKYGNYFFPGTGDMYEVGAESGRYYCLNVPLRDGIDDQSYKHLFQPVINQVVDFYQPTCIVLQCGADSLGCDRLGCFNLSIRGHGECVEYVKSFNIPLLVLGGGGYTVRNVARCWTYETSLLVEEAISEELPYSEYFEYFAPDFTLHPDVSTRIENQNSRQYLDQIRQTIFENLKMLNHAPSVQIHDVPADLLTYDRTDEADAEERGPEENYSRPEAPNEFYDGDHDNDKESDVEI
T2 sequence (Q9Y618 395-489 partner limits assumed): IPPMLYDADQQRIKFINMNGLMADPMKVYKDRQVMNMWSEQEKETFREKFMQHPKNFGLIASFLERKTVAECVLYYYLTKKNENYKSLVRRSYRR
Source text: ^2 Biochemical HDAC3 IC50 value, determined using a fluorogenic p53 peptide, detailed results depicted in Supplementary Figure 1 a.

Question: For `Cc1ccc(C(=O)NO)cc1NCc1ccccc1` [TH34, 3-(N-benzylamino)-4-methylbenzhydroxamic acid], which IC50 (HDAC10) is on record?
Answer: Its IC50 is 7.7 µM.

Question: And the IC50 (HDAC3)?
Answer: Its IC50 is 78.3 ± 0.9 µM.
